Test results from patent publication US20190101539A1, “METABOLOMIC BASED BIOMARKERS FOR COLON CANCER DETECTION” (UNIVERSITY OF SOUTHERN CALIFORNIA, priority 2015, published 2019).

Key:
[1] = Degradation kinetics of FOCM metabolites at storage temperatures, Arrhenius model; type: physicochemical; set-up: Ln (K) / Calculated Ln (K) / Calculated K: unit not given here; details: for Degradation constant, K: first order, days 0-42
Protocol: This will further enhance the clinical prediction ability. The stability of these plasma vitamin B and folate metabolites were studied to validate the reliability of the assay and the time-dependent effect on the concentration of the analytes in patient samples. Using freshly made samples and assessing their degradation over time, we have established an Arrhenius models that will allow the team to extrapolate the metabolite level over time.
The stability of these metabolites were assessed using accelerated stress conditions which involves determining degradation rates of analytes through monitoring changes in time of their concentration in solution at several predetermined storage temperatures and then analyzing the results in terms of the Arrhenius equation: […]
For a valid Arrhenius model to be developed, a linear plot determining the degradation rate of analyte at given storage temperatures against reciprocals of these temperatures is needed. The pre-exponential factor A, which may be obtained by extrapolating the straight line to zero value of the temperature reciprocal, appears to be affected by factors such as exposure to pollution^7 and light^8, relative humidity during the ageing, and the analytes. The activation energy, directly proportional to the slope of the straight line, represents a measure of sensitivity of the degradation rate of the studied property to temperature changes. The degradation rate of the analytes at ambient conditions can be estimated by extrapolating the Arrhenius plot for the analyte concentration to storage temperature. Combined with a kinetic equation describing changes of the concentration with time, this rate may then be used to estimate the life-expectancy of the analytes.
In order to estimate the degradation rate constant, k, at the storage temperature of the plasma samples (which is usually −80° C.), a degradation experiment was conducted for FOCM metabolites at ambient temperatures of 37° C., 25° C., 4° C. and −20° C. […] All degradation curves were assumed to be first order. All experimental samples were stored and quantified at days 0, 3, 7, 14, 21, 28 and 42 using the developed LCMS assay. The results below (for 4-pyridoxic acid) are an example of the data obtained for each of the FOCM metabolites.

[2] = Evaluation of stabilizing agents for FOCM metabolites; type: physicochemical; details: 0.5% ascorbic acid, compared with other stabilizing agents
Description: A major challenge with the FOCM intermediates during storage and analysis is their poor stability. The metabolites may be unstable through environment exposures such as heat, light and/or oxygen, thereby posing great challenge to determine the actual concentration of these metabolites at the time of collection. These FOCM intermediates make the metabolomics-based assay a very powerful tool to a more accurate quantification. The instability of these vitamins pose a great challenge due to their poor stability in the presence of metallic ions, oxidative species and light which catalyze most of the degradation reactions. Most of the vitamin B and folate metabolites degrade due as a consequence of photooxidation reactions which becomes a challenge for assay development necessitating the provision of the most suitable conditions for storage and processing of the plasma samples in order to produce a highly sensitive and reliable assay method. In order to address the instability issues during sample processing, the analysis will be conducted on at 4° C. using black eppendorf tubes. […] Consistent metabolites extraction is achieved using protein precipitation approach followed by the supernatant evaporated to dryness under nitrogen. […]

[3] = −80 °C, extrapolated from Arrhenius model

In the case of `Cc1ncc(CO)c(C(=O)O)c1O` [4-Pyridoxic acid], the “Ln (K)” value ([1]; 4 °C) is reported as −4.164, the “Calculated K” value ([1]; 4 °C, Arrhenius model) is reported as 0.014 and the “Calculated Ln (K)” value ([1]; 4 °C, Arrhenius model) is reported as −4.302. The “Degradation constant, K” value ([1]; 4 °C) was 0.016, the “Ln (K)” value ([1]; 25 °C) was −4.019 and the “Calculated K” value ([1]; 25 °C, Arrhenius model) was 0.019. The “Calculated Ln (K)” value ([1]; 25 °C, Arrhenius model) was −3.977, the “Degradation constant, K” value ([1]; 25 °C) was 0.018 and the “Ln (K)” value ([1]; 37 °C) was −3.841. The “Calculated K” value ([1]; 37 °C, Arrhenius model) was 0.022, the “Calculated Ln (K)” value ([1]; 37 °C, Arrhenius model) was −3.810 and the “Degradation constant, K” value ([1]; 37 °C) was 0.021. The “A, Arrhenius pre-exponential factor” value ([1]; Arrhenius plot) was 1.37, the “Ln(A)” value ([1]; Arrhenius plot intercept) was 0.3183 and the “Ln (K)” value ([1]; −20 °C) was −4.806. The “Calculated K” value ([1]; −20 °C, Arrhenius model) was 0.009, the “Calculated Ln (K)” value ([1]; −20 °C, Arrhenius model) was −4.741 and the “Degradation constant, K” value ([1]; −20 °C) was 0.008. For the same compound, the “Calculated K” value [1, 3] was 0.002, the “Calculated Ln (K)” value [1, 3] was −6.313 and the “E, activation energy” value ([1]; −slope*R of Arrhenius plot) was 10.6 KJmol^−1.
With `O=C1O[C@H]([C@@H](O)CO)C(O)=C1O` [ascorbic acid] the “Stabilization of FOCM metabolites from oxidation” value [2] was “more effective in stabilizing the FOCM metabolites from oxidation”.
